Data published in ChEMBL document CHEMBL1201862, “PubChem BioAssay data set” (2004).
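Dose response: 5 concentrations. Exposure: 48 h. Format: 96-well plates. Endpoint: linear interpolation; highest concentration if not reached. Abbreviation: GI50, concentration required for 50% inhibition of growth.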 Active and inactive are the calls of the source. Cut-off read from the data, not from the text of the source: active = GI50 up to about 1.1 µM and inactive = higher.

Experiments:
Assay in all cases: NCI-60 cell line screen, 48 h
[1] = system: A498
[2] = system: EKVX
[3] = system: HCC 2998
[4] = system: Hs-578T
[5] = system: IGROV-1
[6] = system: M14
[7] = system: MDA-N
[8] = system: NCI-H23
[9] = system: NCI-H522
[10] = system: OVCAR-3
[11] = system: OVCAR-8
[12] = system: PC-3
[13] = system: RPMI-8226
[14] = system: SF-268
[15] = system: SF-295
[16] = system: SN12C
[17] = system: SW-620
[18] = system: T47D
[19] = system: TK-10
[20] = system: U-251

Row | Structure (SMILES) | GI50 [1] | GI50 [2] | GI50 [3] | GI50 [4] | GI50 [5] | GI50 [6] | GI50 [7] | GI50 [8] | GI50 [9] | GI50 [10] | GI50 [11] | GI50 [12] | GI50 [13] | GI50 [14] | GI50 [15] | GI50 [16] | GI50 [17] | GI50 [18] | GI50 [19] | GI50 [20]
1 | COc1ccccc1/C=C/c1c(N)ncnc1Nc1cccc(Cl)c1 | 12.7 µM (inactive) | 16.7 µM (inactive) | 27.4 µM (inactive) | 16.9 µM (inactive) | 1.69 µM (inactive) | 26.5 µM (inactive) | 25 µM (inactive) | 20.8 µM (inactive) | 10.8 µM (inactive) | 25.2 µM (inactive) | 25.4 µM (inactive) | 0.164 µM (active) | 0.318 µM (active) | 16.1 µM (inactive) | 26.2 µM (inactive) | 13.5 µM (inactive) | 34 µM (inactive) | 40.4 µM (inactive) | 14.5 µM (inactive) | 15.7 µM (inactive)
2 | O=C(/C=C/c1ccccc1)CCN1CCOCC1 | 19 µM (inactive) | 18.5 µM (inactive) | 20 µM (inactive) | 27.1 µM (inactive) | 15.7 µM (inactive) | 14.8 µM (inactive) | 14.2 µM (inactive) | 16.2 µM (inactive) | 3.87 µM (inactive) | 14.3 µM (inactive) | 15.1 µM (inactive) | 17.4 µM (inactive) | 1.56 µM (inactive) | 12 µM (inactive) | 19 µM (inactive) | 14.8 µM (inactive) | 5.48 µM (inactive) | 17.7 µM (inactive) | 13.7 µM (inactive) | 12.9 µM (inactive)
